Patent US6395281B1, “Cosmetic skin conditioning compositions containing red yeast rice extract” (Unilever Home & Personal Care USA, a division of Conopco, …, priority 1999, dated 2002)

Assays:
[1] = tested on: Cellular Retinoic Acid Binding Protein 2 (CRABP-2) in human adult fibroblasts; assay: CRABP-2 production by fibroblasts (Western blot); format: cell-based; settings: 10e-6M retinoid alone, 48 hours
Protocol: This example investigated the effect of various tested compounds on CRABP-2 production by fibroblasts.
Human adult fibroblasts obtained from su n-protected inner arm of 25-30 year […] volunteer were used in this. Cells were grown in 1:1 DMEM/Hams F12 media containing 10% FBS, maintained at 37° C. in a 5% CO2 atmosphere under normal atmospheric oxygen tension. Third passage adult fibroblasts were grown in DMEM media with 10% FBS in 12-well plates at a seeding density of 2500 cells/ml/well. The cells at 80% confluence were rinsed in serum free and phenol red free (PRF) DMEM media twice. Pre-treatment with test compound for 4 hours was conducted and then dosed with retinoids and was incubated for 48 hours.
After the incubation, the wells were was ed twice with 1X PBS and the cell monolayer was harvested in 100 μl cell lysis buffer (contains 1X PBS, 1% TritonX, 0.5% sodium deoxycholate, 0.1% SDS containing p tease inhibitor (10 mg/ml PMSF in isopropanol, 10 μl/ml). The suspension was spun at 14000 rpm for 10 minutes, the supernatant collected and an aliquot of this supematant was used for protein quantification. Protein concentration was determined using Pierce protein kit. The remainder of 100 μl supernatant (cell lysate) was denatured in a mixture of 40 μl sample buffer (NOVEX) and 0.5% Beta mercaptoethanol (IBME) and by boiling the sample for 5 minutes. Equal amount of protein was then loaded onto 16% Tris-glycine gels for protein analysis by SDS page and Western Immuno-blotting for CRABP-2 protein expression.
The gels were run and transferred to nitrocellulose blots and Western Blotting was carried out using monoclonal antibodies to CRABP-2 according to standard procedures. The CRABP-2 protein band was visualized in the Western Blots using the chemiluminescence system obtained from Santa Cruz Biotechnology (SantaCruz, Calif.). The bands in the film were quantitated by densitometric scanning, the-data from triplicate samples were calculated as % of control and expressed in the following tables as % increase over control (with control as 100%) +/−SD of triplicates.

[2] = tested on: Neonatal human dermal fibroblasts; assay: Procollagen I production by fibroblasts (dot blot); format: cell-based; settings: 50 μg; for Procollagen 1 production: densitometer reading
Protocol: This example measured production of procollagen I by fibroblasts in response to treatment with various test compounds.
Methodology for determination of (Pro) Collagen-I protein expression using Dot Blot technique:
Neonatal human dermal fibroblasts (passage 4 to 8) were purchased from Clonetics Corp. San Diego, Calif. All materials for cell culture were purchased from Life technologies, New York and used in passages 5-10. Cells were seeded at a density of approximately 7,500/well in the inner 48 wells of a 96-well plate in DMEM (Dulbecco's Modified Eagle's Medium), high glucose supplemented with 2 mM L-glutamine, 10% fetal bovine serum, and antibiotic and. antimycotic solutions. Cells were grown to confluence and washed with serum free, phenol red free DMEM and cells dosed with 200 μl actives in media. Each dosing was replicated in a total of six to twelve wells. After 24 hours, the test compound solution or the control solution was removed and cells re-dosed with 100 μl actives in media. After 24 hours incubation, remove media and store at 4° C. with protease inhibitor (Aprotinin 1:200) until further use. The test compound solution was then diluted in 1X Tris buffered saline (pH=8) buffer (approximately 20 μl media in 200 μl buffer).
PVDF membrane soaked in methanol and 2 filter papers in 1X TBS (pH=8). Bio-Rad dot blot apparatus was set up with filter paper on bottom, membrane on top, tighten, added 100 μl TBS per well. Vacuum dry. Vortex or mix, then load 100 μl diluted sample per well; let it sit for 15 minutes and then vacuum dry. Remove membrane from the apparatus, cut off excess, and notch bottom right comer for orientation. Place membrane in blocking buffer (5% milk powder in 1X TBS-Tween) for 1 hour at room temperature with shaking. […] Remove membrane, do a 10 minute wash three to five times in TBS/0.1% Tween. Incubate for 1 hour at RT or O/N at 4° C. in 5 ml 1:1000 anti-rat conjugated alkaline phosphatase (AP) secondary antibody in 1-% milk in TBS-T in a sealed bag with shaking. Wash membrane for 15 minutes five to eight times with TBS-T, and final rinse with 1X PBS. The membrane was developed using Chemiluminiscent substrate (Boehringer Mannheim, Ind.) and results were analysed using a laser densitometer (Bio-Rad instrument). Fold increase was calculated as a ratio of densitometer reading for cells treated with a test compound over control.

ZR75 cells = assay: Assay for estrogen like activity: [methyl-3H] thymidine incorporation in ZR75 cells; format: cell-based, human; settings: 0.27 × 10^−6% (10 nM)
Description: The ZR75 cell line is a ductal breast carcinoma cell line, originally isolated from malignant mammary epithelium of a person (10). The chromosome number is triploid and the trypsin-Giemsa banding patterns indicate a unique karyotype distinct from HeLa cells. While containing receptors for estrogen, insulin, progesterone and other hormones, ZR75 cells only respond through an increase in proliferation to estrogen and insulin. The cell line contains high affinity estrogen-specific receptors. Therefore, this cell line is used for testing estrogen-like activity.
The cells are split 1:2 once every week and seeded in 24 well plates at one hundred thousand cells per milliliter per well for the assay.
After growing for twenty-four hours, the media was removed, the cells were washed with PBS and one ml of RPMI 1640 without serum was readded. Different dilutions of the red yeast rice extract were then dosed directly into each well. After another twenty-four hours, one microCurie of [methyl-3H] thymidine was added to the media in each well. The media was removed after twenty-four hours to begin the thymidine uptake assay. […] The samples were transferred to scintillation vials and after adding five milliliters of counting fluid (scintiverse), the vials were counted for five minutes each on a setting for tritium. […] Data was calculated as % of control to normalize for experiment-to-experiment variation.

human sebocytes = assay: Sebum secretion by sebocytes (14C-acetate incorporation); format: cell-based; settings: 0.001%
Protocol: This example investigated the effect of red yeast rice on sebum secretion by sebocytes. Secondary cultures of human sebocytes obtained from an adult […] were grown in 48-well tissue culture plates (Costar Corp.; Cambridge, Mass.) until confluent. Sebocyte growth medium consisted of Clonetics Keratinocyte Basal Medium (KBM) supplemented with 14 μg/ml bovine pituitary extract, 0.4 μg/ml hydrocortisone, 5 μg/ml insulin, 10 ng/ml epidermal growth factor, 1.2×10−10 M cholera toxin, 100 units/ml penicillin, and 100 μg/ml streptomycin. All cultures were incubated at 37° C. in the presence of 7.5% CO2. Medium was changed three times per week. On the day of experimentation, the growth medium was removed and the sebocytes washed three times with sterile Dulbecco's Modified Eagle Medium (DMEM; phenol red free). Fresh DMEM was added to each sample (triplicates in Table 4 and duplicated in Table 5) with 5 microliter of test agent solubilized in ethanol. Controls consisted of addition of ethanol alone. Each plate was returned to the incubator for 20 hours followed by the addition of 14C-acetate buffer (5 mM final concentration, 56 mCi/mmol specific activity). […] Radioactive label remaining in the sebocytes was harvested and counted using a Beckman scintillation counter. […]

With `CCCCC/C=C\C/C=C\CCCCCCCC(=O)OC/C=C(C)/C=C/C=C(C)/C=C/C1=C(C)CCCC1(C)C` [Retinyl linoleate] the “CRABP-2 % of Control” value [1] was 156 +/− 13% and the “CRABP-2 OD +/− SD” value [1] was 1.96 +/− 0.16 OD.

In the case of `CC1=C(/C=C/C(C)=C/C=C/C(C)=C/CO)C(C)(C)CCC1` [Retinol], the “CRABP-2 % of Control” value [1] was 153 +/− 5% and the “CRABP-2 OD +/− SD” value [1] was 1.91 +/− 0.06 OD.

`O=C1O[C@H]([C@@H](O)CO)C(O)=C1O` [Vitamin C] was tested, and the “Procollagen 1 production % of Control” value [2] was 175 +/− 37% and the “Procollagen 1 production” value [2] was 1.311 +/− 0.28.

In the case of `C[C@]12CC[C@@H]3c4ccc(O)cc4CC[C@H]3[C@@H]1CC[C@@H]2O` [Estradol, estradiol], the “cpm +/− SD (thymidine incorporation)” value (ZR75 cells) was 263982 +/− 711 cpm and the activity at 0.01 µM (ZR75 cells; Homo sapiens, ZR75, read-out: thymidine incorporation % of control) was 224%.

`CCCCCCCCCCCCCCCC(=O)OC/C=C(C)/C=C/C=C(C)/C=C/C1=C(C)CCCC1(C)C` [Retinyl palmitate] was tested, and the “CRABP-2 % of Control” value [1] was 178 +/− 33% and the “CRABP-2 OD +/− SD” value [1] was 2.00 +/− 0.04 OD.

`O=S1(=O)OC(c2ccc(O)cc2)(c2ccc(O)cc2)c2ccccc21` [Phenol Red] was tested, and the “% Reduction (sebum, 14C-acetate label)” value (human sebocytes; first Table 4 (triplicates)) was 83.4% and the “% Reduction (sebum, 14C-acetate label)” value (human sebocytes; second table, printed as Table 4 (Table 5, duplicates)) was 83.4%.

With `O=C1O[C@H]([C@@H](O)CO)C([O-])=C1OP(=O)([O-])[O-].[Na+].[Na+].[Na+]` [Sodium ascorbyl phosphate, sodium ascorbyl phosphate] the “Procollagen 1 production % of Control” value [2] was 116 +/− 27% and the “Procollagen 1 production” value [2] was 0.871 +/− 0.2.

In the case of `CC(=O)OC/C=C(C)/C=C/C=C(C)/C=C/C1=C(C)CCCC1(C)C` [Retinyl Acetate], the “CRABP-2 % of Control” value [1] was 398 +/− 157% and the “CRABP-2 OD +/− SD” value [1] was 3.86 +/− 0.28 OD.

`CCCCCCCCCCCCCCCC(=O)OC[C@H](O)[C@H]1OC(=O)C(O)=C1O` [Ascorbyl Palmitate, ascorbyl palmitate] was tested, and the “Procollagen 1 production % of Control” value [2] was 103 +/− 48% and the “Procollagen 1 production” value [2] was 0.775 +/− 0.36.
